Assay results reported in US12152035B2, “Androgen receptor binding molecule and use thereof” (Industrial Technology Research Institute, priority 2020, dated 2024).

Experiments:
VCaP cells = assay: Cytotoxicity assay (AlamarBlue, 72 hours); format: cell-based; conditions: 72 hours treatment, concentration not given
Procedure, shortened: (§1)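 CWR22Rv1 or VCaP cells in RPMI-1640 with 10% FBS were seeded at 1×10^4 cells/well. Next day they were treated with compound, test samples at 100, 10, 1 and 0.1 μM, giving 1% DMSO final. After 72 h, AlamarBlue was added for 4 h, fluorescence was read at Ex/Em 560/590 nm, and % cytotoxicity was calculated.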

CWR22RV1 cells = assay: Cytotoxicity assay (AlamarBlue, 72 hours); format: cell-based; conditions: 72 hours treatment, concentration not given
Procedure, shortened: as §1

[1] = test system: CWR22Rv1 cells or VCaP cells; assay: Xenograft tumor growth in SCID mice; format: in vivo, Male SCID mice; conditions: 5 or 30 mg/kg, IP, BID
Experimental: Mice: Male SCID mice (CB17/Icr-Prkdcscid/IcrIcoCrlBltw, 4-6 weeks old, purchased from BioLASCO Taiwan Co., Ilan, Taiwan.)
The cells were harvested when CWR22Rv1 cells or VCaP cells were cultured to exponential growth phase, and then the cells were washed twice with PBS. Then, for CWR22Rv1 cells, 5×10^6 cells were suspended in 100 μL PBS containing 33% Matrigel to form a cell suspension; for VCaP cells, 3×10^6 cells were suspended in 100 μL PBS containing 50% Matrigel to form a cell suspension cell suspension. Then, the above cell suspension was subcutaneously implanted into the right back of male SCID mice with a 25G needle.
After cell inoculation, when the average tumor volume reached […] or the tumor clearly began to grow, the mice were divided into a vehicle-treated group (n=4-8), 5 mg/kg Compound 1 treated group (n=4-8) and 30 mg/kg Compound 1 treatment group (n=4-8), and administered by intraperitoneal injection (IP), twice daily (BID). The vehicle was 10% N-methylpyrrolidone (NMP, N-Methyl-2-pyrrolidone) and 20% castor oil polyoxyethylene ether (Cremophor EL) in PBS buffer solution. Tumor volume and animal body weight were determined three times a week after dosing.
Tumor size was measured with a caliper and converted to tumor volume (cm^3; V) using the formula: V=0.5×[Length×(Width)^2]
Antitumor activity was expressed as tumor growth inhibition (TGI). […]

[2] = test system: full-length androgen receptor; assay: Western blot: degradation of full-length androgen receptor in CWR22RV1 cells; format: cell-based; conditions: overnight
Procedure, shortened: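 CWR22Rv1 cells (5×10^5 per well) seeded overnight in RPMI with 10% FBS at 37 °C, 5% CO2, then given fresh medium and compound at various concentrations overnight. Lysates analysed by Western blot for full-length AR and AR-V7, with GAPDH as loading control.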

[3] = compound concentration 0.1 (unit not given)
[4] = compound concentration 1 (unit not given)
[5] = compound concentration 10 (unit not given)

SMILES	Cytotoxicity, VCaP cells (cell viability %) (VCaP cells)	Cytotoxicity, CWR22RV1 cells (cell viability %) (CWR22RV1 cells)	Increase in tumor size compared to vehicle treatment [1]	Degradation ability for full-length androgen receptor (residual rate %) [2, 3]	Degradation ability for full-length androgen receptor (residual rate %) [2, 4]	Degradation ability for full-length androgen receptor (residual rate %) [2, 5]
Cc1ncsc1-c1ccc(CNC(=O)[C@@H]2C[C@H](O)CN2C(=O)[C@@H](NC(=O)COCCCCOc2ccc(C3CCN(C4=Nn5c(nnc5C(F)(F)F)CC4)CC3)cc2)C(C)(C)C)cc1 [Compound 1, (2S,4S)-1-((S)-3,3-dimethyl-2-(2-(4-(4-(1-(3-(trifluoromethyl)-7,8-dihydro-[1,2,4]triazolo[4,3-b]pyridazin-6-yl)piperidin-4-yl)phenoxy)butoxy)acetamido)butanoyl)-4-hydroxy-N-(4-(4-methylthiazol-5-yl)benzyl)pyrrolidine-2-carboxamide]	+++ (<40% : +++)	+++ (<40% : +++)	tends to slow down	+ (60-80%: +)	+ (60-80%: +)	+++ (<40%: +++)
CC1(C)C(NC(=O)c2ccc(C#CC3CCN(C4CCN(C(=O)CNc5cccc6c5C(=O)N(C5CCC(=O)NC5=O)C6=O)CC4)CC3)cc2)C(C)(C)C1OC1=Nn2c(nnc2C(F)(F)F)CC1 (stereo not shown) [Compound 52, 4-((1′-((2-(2,6-dioxopiperidin-3-yl)-1,3-dioxoisoindolin-4-yl)glycyl)-[1,4′-bipiperidin]-4-yl)ethynyl)-N-((1r,3r)-2,2,4,4-tetramethyl-3-((3-(trifluoromethyl)-7,8-dihydro-[1,2,4]triazolo[4,3-b]pyridazin-6-yl)oxy)cyclobutyl)benzamide]	+++ (<40% : +++)	+++ (<40% : +++)	–	− (>80%; −)	++ (40-60%: ++)	++ (40-60%: ++)
Cc1ncsc1-c1ccc(CNC(=O)[C@@H]2C[C@H](O)CN2C(=O)[C@@H](NC(=O)COCCCCOc2ccc(C(=O)NC3C(C)(C)C(Oc4ccc5nnc(C(F)(F)F)n5n4)C3(C)C)cc2)C(C)(C)C)cc1 (stereo partly shown) [Compound 53, 1-(3,3-dimethyl-2-(2-(4-(4-(((1r,3r)-2,2,4,4-tetramethyl-3-((3-(trifluoromethyl)-[1,2,4]triazolo[4,3-b]pyridazin-6-yl)oxy)cyclobutyl)carbamoyl)phenoxy)butoxy)acetamido)butanoyl)-4-hydroxy-N-(4-(4-methylthiazol-5-yl)benzyl)pyrrolidine-2-carboxamide]	+++ (<40% : +++)	+++ (<40% : +++)	–	− (>80%; −)	+++ (<40%: +++)	+++ (<40%: +++)
